Values after ≈ are worked out from the molar mass of the structure shown. Read-outs that look alike come from different tables or passages of the source.
Tests used:
M. tuberculosis (H37Rv) = assay: microbe, parasite or virus in culture; type: cell-based, Mycobacterium tuberculosis; details: for MIC: Mycobacterium tuberculosis, H37RV
[1] = type: in vitro ADME, mouse
HepG2 cells = assay: HepG2 cytotoxicity; details: Homo sapiens
Source text: Assays to establish HepG2 cytotoxicity, in vitro microsomal/hepatocyte metabolic stability, aqueous kinetic solubility, and in vivo pharmacokinetic profiles were all performed as previously described.[15],[35]−[37]

physchem [2] = type: physicochemical
[3] = type: in vitro ADME, mouse; remark: listed apart in the source
physchem [4] = details: pH 7.4
[5] = read-out: Wk2_7H9/DPPC/ casitone/ Tyloxapol MIC
[6] = read-out: Wk2_ 7H9/DPPC/ cholesterol/BSA/ Tyloxapol MIC
[7] = read-out: Wk2_7H9/glucose/ BSA/Tyloxapol MIC
[8] = read-out: Wk2_7H9/glucose/ casitone/ Tyloxapol MIC
[9] = HepG2, read-out: HepG2 inhibitory concentration (IC50)
[10] = pH 7.4, aqueous buffer, kinetic from dmso stock
[11] = pH 7.4, aqueous buffer, kinetic from dmso stock, pH7.4, read-out: Kinetic Solubility pH7.4
[12] = intrinsic clearance (Cli), CD1 mouse liver microsomes, Tables 1-4
[13] = kinetic solubility in water, read-out: Kin. Sol

Structure (SMILES)	MIC (M. tuberculosis (H37Rv); read-out: H37Rv MIC A) [µM]	MIC (M. tuberculosis (H37Rv); read-out: H37Rv MIC B) [µM]	MIC (M. tuberculosis (H37Rv); [5]) [µM]	MIC (M. tuberculosis (H37Rv); [6]) [µM]	MIC (M. tuberculosis (H37Rv); [7]) [µM]	MIC (M. tuberculosis (H37Rv); [8]) [µM]	Microsomal Cli ([1]; CD1, mouse) [mL/min/g]	Mouse micro Cl ([1]; mouse, microsomes) [mLmin/g]	IC50 (HepG2 cells; [9]) [µM]	solubility kinetic (physchem [2]; [10]) [µM]	solubility kinetic (physchem [2]; read-out: Kin. Sol) [µM]	Hepatocyte Cli ([3]; mouse) [mL/min/g]	Mouse Heps Cl ([3]; mouse, hepatocytes) [mLmin/g]	also measured
CN(C)c1ncnc2sc(-c3c(F)c(F)cc(F)c3F)nc12 [Compound 2, CN(C)c1ncnc2sc(nc12)-c1c(c(cc(c1F)F)F)F]	> 50	> 50	> 50	> 50	> 50	4.7 (≈ 1.54 µg/mL)	>50	>50	> 100					
CN(C)c1ncnc2sc(-c3ccccc3)nc12 [Compound 3, CN(C)c1ncnc2sc(nc12)-c1ccccc1]	> 50	> 50	> 50	> 50	> 50	> 50	>50	>50	> 100					
CN(C)c1ncnc2sc(-c3cc(F)c(F)c(F)c3)nc12 [Compound 4, CN(C)c1ncnc2sc(nc12)-c1cc(c(c(c1)F)F)F]	> 50	> 50	> 50	> 50	> 50	> 50	>50	>50	> 100					
CN(C)c1ncnc2sc(-c3ccc(F)cc3)nc12 [Compound 5, CN(C)c1ncnc2sc(nc12)-c1ccc(cc1)F]	> 50	> 50	> 50	> 50	> 50	19 (≈ 5.21 µg/mL)	>50	>50	> 100					
CN(C)c1ncnc2oc(-c3c(F)c(F)c(F)c(F)c3F)nc12 [Compound 6, CN(C)c1ncnc2oc(nc12)-c1c(c(c(c(c1F)F)F)F)F]	0.2 (≈ 0.066 µg/mL)	1.4 (≈ 0.462 µg/mL)	0.2 (≈ 0.066 µg/mL)	1.4 (≈ 0.462 µg/mL)	1.4 (≈ 0.462 µg/mL)	0.15 (≈ 0.0495 µg/mL)	>50	>50	> 100	1 (≈ 0.33 µg/mL)	1.0 (≈ 0.33 µg/mL)	>50	>50	
CN(C)c1ncnc2c1nc(-c1c(F)c(F)c(F)c(F)c1F)n2C [Compound 7, CN(C)c1ncnc2n(c(nc12)-c1c(c(c(c(c1F)F)F)F)F)C]	1.9 (≈ 0.652 µg/mL)	> 50	1.9 (≈ 0.652 µg/mL)	> 50	> 50	1.7 (≈ 0.584 µg/mL)	8.4	8.4	> 100	26 (≈ 8.92 µg/mL)	26 (≈ 8.92 µg/mL)			
CCN(CC)c1ncnc2sc(-c3c(F)c(F)c(F)c(F)c3F)nc12 [Compound 8, CCN(CC)c1ncnc2sc(nc12)-c1c(c(c(c(c1F)F)F)F)F]	0.3 (≈ 0.112 µg/mL)	0.78 (≈ 0.292 µg/mL)	0.3 (≈ 0.112 µg/mL)	0.8 (≈ 0.299 µg/mL)	0.8 (≈ 0.299 µg/mL)	0.4 (≈ 0.15 µg/mL)	26	26	> 100	0.142 (≈ 0.0532 µg/mL)				solubility kinetic (physchem [2]; water, kinetic from dmso stock): 0.1 µM (≈ 0.0374 µg/mL)
Fc1c(F)c(F)c(-c2nc3c(N4CCOCC4)ncnc3s2)c(F)c1F [Compound 9, Fc1c(c(c(c(c1F)F)-c1nc2c(ncnc2s1)N1CCOCC1)F)F]		0.6 (≈ 0.233 µg/mL)		0.6 (≈ 0.233 µg/mL)	0.6 (≈ 0.233 µg/mL)	0.07 (≈ 0.0272 µg/mL)	43	43	> 100	2.8 (≈ 1.09 µg/mL)	2.8 (≈ 1.09 µg/mL)			
Fc1c(F)c(F)c(-c2nc3c(N4CCOCC4)ncnc3o2)c(F)c1F [Compound 10, Fc1c(c(c(c(c1F)F)-c1nc2c(ncnc2o1)N1CCOCC1)F)F]	0.2 (≈ 0.0745 µg/mL)	1.2 (≈ 0.447 µg/mL)	0.2 (≈ 0.0745 µg/mL)	1.2 (≈ 0.447 µg/mL)	1.2 (≈ 0.447 µg/mL)	0.15 (≈ 0.0558 µg/mL)			49					solubility kinetic (physchem [2]; kinetic from dmso stock, kinetic solubility in water, read-out: Kin. Sol): 13.6 µM (≈ 5.06 µg/mL); solubility kinetic (physchem [2]; [11]): 14 µM (≈ 5.21 µg/mL); Mouse micro Cl [1, 12]: 44 mLmin/g; Microsomal Cli ([1]; supplement data table): 44 mL/min/g; Mouse Heps Cl ([3]; intrinsic clearance (Cli), mouse hepatocytes, Tables 1-4): >50 mLmin/g; Hepatocyte Cli ([3]; supplement data table): >50 mL/min/g; IC50 (HepG2 cells; HepG2, read-out: Hs-HEPG IC50): 48 µM
Fc1c(F)c(F)c(-c2nc3cncnc3s2)c(F)c1F [Compound 11, Fc1c(c(c(c(c1F)F)-c1nc2cncnc2s1)F)F]	0.34 (≈ 0.103 µg/mL)	6.3 (≈ 1.91 µg/mL)	0.342 (≈ 0.104 µg/mL)	6.3 (≈ 1.91 µg/mL)	4.7 (≈ 1.43 µg/mL)	0.279 (≈ 0.0846 µg/mL)	18	18	35	103 (≈ 31.2 µg/mL)	103 (≈ 31.2 µg/mL)			
CNc1ncnc2oc(-c3c(F)c(F)c(F)c(F)c3F)nc12 [Compound 12, CNc1ncnc2oc(nc12)-c1c(c(c(c(c1F)F)F)F)F]	> 50	> 50	> 50	> 50	> 50	> 50	<0.5	0.5	> 100	227 (≈ 71.8 µg/mL)	228 (≈ 72.1 µg/mL)	4.7	4.7	
CN(C)c1ccnc2oc(-c3c(F)c(F)c(F)c(F)c3F)nc12 [Compound 13, CN(C)c1ccnc2oc(nc12)-c1c(c(c(c(c1F)F)F)F)F]	0.6 (≈ 0.198 µg/mL)	3.1 (≈ 1.02 µg/mL)	0.6 (≈ 0.198 µg/mL)	3.1 (≈ 1.02 µg/mL)	2.3 (≈ 0.757 µg/mL)	0.6 (≈ 0.198 µg/mL)	>50	>50		1.6 (≈ 0.527 µg/mL)	1.6 (≈ 0.527 µg/mL)	>50	>50	
CN(C)c1nccc2oc(-c3c(F)c(F)c(F)c(F)c3F)nc12 [Compound 14, CN(C)c1nccc2oc(nc12)-c1c(c(c(c(c1F)F)F)F)F]	3.1 (≈ 1.02 µg/mL)	9.4 (≈ 3.09 µg/mL)	3.1 (≈ 1.02 µg/mL)	9.4 (≈ 3.09 µg/mL)	6.3 (≈ 2.07 µg/mL)	3.1 (≈ 1.02 µg/mL)	>50	>50	> 100			>50	>50	
Oc1ncnc2oc(-c3c(F)c(F)c(F)c(F)c3F)nc12 [Compound 15, Oc1ncnc2oc(nc12)-c1c(c(c(c(c1F)F)F)F)F]	1.4 (≈ 0.424 µg/mL)	9.4 (≈ 2.85 µg/mL)	1.4 (≈ 0.424 µg/mL)	9.4 (≈ 2.85 µg/mL)	5.4 (≈ 1.64 µg/mL)	3.9 (≈ 1.18 µg/mL)	2.8	2.81	88	149 (≈ 45.2 µg/mL)	149 (≈ 45.2 µg/mL)	>50	>50	
COC(=O)c1cnccc1NC(=O)c1c(F)c(F)c(F)c(F)c1F [Compound 16, COC(=O)c1cnccc1NC(=O)c1c(c(c(c(c1F)F)F)F)F]	0.1 (≈ 0.0346 µg/mL)	0.6 (≈ 0.208 µg/mL)	0.1 (≈ 0.0346 µg/mL)	0.6 (≈ 0.208 µg/mL)	0.3 (≈ 0.104 µg/mL)	0.15 (≈ 0.0519 µg/mL)	20	20	64	112 (≈ 38.8 µg/mL)	112 (≈ 38.8 µg/mL)	>50	>50	chromatographic logD (physchem [4]): 3.2
COC(=O)c1cccnc1NC(=O)c1c(F)c(F)c(F)c(F)c1F [Compound 17, COC(=O)c1cccnc1NC(=O)c1c(c(c(c(c1F)F)F)F)F]	9.4 (≈ 3.25 µg/mL)	> 50	9.4 (≈ 3.25 µg/mL)	> 50	> 50	12.5 (≈ 4.33 µg/mL)	47	47	> 100					
COC(=O)c1ccncc1NC(=O)c1c(F)c(F)c(F)c(F)c1F [Compound 18, COC(=O)c1ccncc1NC(=O)c1c(c(c(c(c1F)F)F)F)F]	4.7 (≈ 1.63 µg/mL)	12.5 (≈ 4.33 µg/mL)	4.7 (≈ 1.63 µg/mL)	12.5 (≈ 4.33 µg/mL)	12.5 (≈ 4.33 µg/mL)	4.7 (≈ 1.63 µg/mL)	27	27	> 100	109 (≈ 37.7 µg/mL)	109 (≈ 37.7 µg/mL)			chromatographic logD (physchem [4]): 2.8
CCOC(=O)c1c(NC(=O)c2c(F)c(F)c(F)c(F)c2F)ncn1C [Compound 21, CCOC(=O)c1c(ncn1C)NC(=O)c1c(c(c(c(c1F)F)F)F)F]	2.3 (≈ 0.835 µg/mL)	6.3 (≈ 2.29 µg/mL)	2.3 (≈ 0.835 µg/mL)	6.3 (≈ 2.29 µg/mL)	4.7 (≈ 1.71 µg/mL)	1.6 (≈ 0.581 µg/mL)			> 100					loss of MIC potency (M. tuberculosis (H37Rv); relative to comparator of the series (21 vs thiophenes; 42 vs 24)): 10 fold; solubility kinetic (physchem [2]; [13]): 203 µM (≈ 73.7 µg/mL); solubility kinetic (physchem [2]; [11]): 203 µM (≈ 73.7 µg/mL); Mouse micro Cl [1, 12]: 8.6 mLmin/g; Microsomal Cli ([1]; supplement data table): 8.6 mL/min/g; chromatographic logD (physchem [4]): 2.2
CCOC(=O)c1nc(C)oc1NC(=O)c1cc(F)c(F)c(F)c1 [Compound 26, CCOC(=O)c1nc(oc1NC(=O)c1cc(c(c(c1)F)F)F)C]	> 50	> 50	> 50	> 50	> 50	> 50								solubility kinetic (physchem [2]; [13]): 241 µM (≈ 79.1 µg/mL); solubility kinetic (physchem [2]; [11]): 241 µM (≈ 79.1 µg/mL); Mouse micro Cl [1, 12]: 7.1 mLmin/g; Microsomal Cli ([1]; supplement data table): 7.1 mL/min/g; chromatographic logD (physchem [4]): 2.3

Reference: paper PMC11915372, “Identification of a Series Containing a Pentafluorophenyl Moiety That Targets Pks13 to Inhibit Growth of Mycobacterium tuberculosis” (ACS Infectious Diseases, 2025)
